ChEMBL document CHEMBL5375951, “Beware the Receptor Variants” (J Med Chem, 2023)

Key:
[1] = Agonist activity at MRGPRX4 83L expressed in human HEK293 cells co- expressing Gq assessed as change in intracellular calcium level by calcium mobilization assay; assay type: cell-based
[2] = Agonist activity at MRGPRX4 83S expressed in human HEK293 cells co- expressing Gq assessed as change in intracellular calcium level by calcium mobilization assay; assay type: cell-based

EC50 [1] [µM]	EC50 [2] [µM]	SMILES
0.435	0.0112	COc1cccc(CCc2nc3c([nH]2)c(=O)n(CC#N)c(=O)n3CCCCP(=O)(O)O)c1
0.00656	13.3	CC12CC3CC(C)(C1)CC(C(=O)N[C@H](Cc1ccccc1)C(=O)O)(C3)C2
–	16.9	C[C@H](CCC(=O)O)[C@H]1CC[C@H]2[C@@H]3CC[C@@H]4C[C@H](O)CC[C@]4(C)[C@H]3C[C@H](O)[C@]12C [DEOXYCHOLIC ACID]
–	> 10	CC(C)[C@H]1CC[C@H](C(=O)N[C@H](Cc2ccccc2)C(=O)O)CC1 [NATEGLINIDE]
> 10	> 10	C[C@H](CCC(=O)NCCS(=O)(=O)O)[C@H]1CC[C@H]2[C@@H]3CC[C@@H]4C[C@H](O)CC[C@]4(C)[C@H]3C[C@H](O)[C@]12C [TAURODEOXYCHOLIC ACID]
